Test results as given in ChEMBL document CHEMBL1142376, “Novel CADD-based peptidyl vinyl ester derivatives as potential proteasome inhibitors” (Bioorg Med Chem Lett, 2008).

Legend:
[1] = test system: HL-60; test: Antiproliferative activity against human HL60 cells at 10 umole; type: functional
[2] = test system: Bel-7402; test: Antiproliferative activity against human Bel7402 cells at 10 umole; type: functional
[3] = Inhibition of post acidic-like activity of 20S proteasome
[4] = Inhibition of chymotrypsin-like activity of 20S proteasome
[5] = test system: BGC-823; test: Antiproliferative activity against human BGC823 cells at 10 umole; type: functional
[6] = Inhibition of trypsin-like activity of 20S proteasome
[7] = test system: KB; test: Antiproliferative activity against human KB cells at 10 umole; type: functional

IC50 [3]	IC50 [4]	IC50 [6]	SMILES	Activity [1]	Activity [2]	Activity [5]	Activity [7]
> 100 µmol	> 100 µmol	> 100 µmol	CCOC(=O)/C=C/[C@H](Cc1ccc(O)cc1)NC(=O)[C@H](CO)NC(=O)[C@@H](NC(=O)OC(C)(C)C)C(C)C	26.73%	3.39%	22.59%	7.44%
> 100 µmol	> 100 µmol	> 100 µmol	CCOC(=O)/C=C/[C@H](Cc1ccc(O)cc1)NC(=O)[C@H](Cc1ccccc1)NC(=O)[C@H](CC(C)C)NC(=O)OC(C)(C)C	7.87%	-4.24%	13.74%	-5.34%
